Target: T1, human IL-17A (Homo sapiens, UniProt Q16552)
T1 construct: purchased R&D Systems 7955-IL/CF
T1 sequence (Q16552 24-155): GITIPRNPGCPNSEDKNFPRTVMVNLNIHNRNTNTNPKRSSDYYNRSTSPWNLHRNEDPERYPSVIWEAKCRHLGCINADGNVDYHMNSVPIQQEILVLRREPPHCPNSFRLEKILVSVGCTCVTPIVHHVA
Test: IL-17A AlphaLISA competition assay (block of IL-17A binding to its receptor IL-17RA)
Settings: mean IC50 (n≥2), block of IL-17A binding to IL-17RA
In short: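 Bead-based AlphaLISA competition in PBS with 0.05% Tween-20 and 0.1% BSA: compound first meets human IL-17A (7.5 nM stock) for 30 min, then IL-17RA/Fc (5 nM stock) for 90 min, all at room temperature, before acceptor/donor bead capture. IC50 fitted 4-parameter, DMSO and 4 μM reference inhibitor as controls; at least duplicate.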

| IC50 | SMILES |
| --- | --- |
| 723 nM | CC(C)n1ccnc1C(=O)N[C@H](C(=O)Nc1cc(C(NC(=O)CCC(F)(F)F)C2CC2)ccn1)C1CCC(F)(F)CC1 (stereo partly drawn) [Example 117, N-((1S)-2-((4-(cyclopropyl(4,4,4-trifluorobutanamido)methyl)pyridin-2-yl)amino)-1-(4,4-difluorocyclohexyl)-2-oxoethyl)-1-isopropyl-1H-imidazole-2-carboxamide] |
| 48 nM | CCc1nonc1C(=O)N[C@H](C(=O)Nc1cc(C[C@H]2C[C@@H](C(F)(F)F)NC2=O)ccn1)C1CCC(F)(F)CC1 [Example 220, N-((S)-1-(4,4-difluorocyclohexyl)-2-oxo-2-((4-(((3S,5S)-2-oxo-5-(trifluoromethyl)pyrrolidin-3-yl)methyl)pyridin-2-yl)amino)ethyl)-4-ethyl-1,2,5-oxadiazole-3-carboxamide] |
| 98 nM | COC[C@H](c1ccnc(NC(=O)[C@@H](NC(=O)c2ccnn2C(C)C)[C@H]2CCCC(F)(F)C2)c1)N1C[C@@H](C(F)(F)F)NC1=O (single isomer, unassigned) [Example 309] |
| 90 nM | COC[C@H](c1ccnc(NC(=O)[C@@H](NC(=O)c2nonc2C)C2CCC(Cl)CC2)c1)N1C[C@@H](C(F)(F)F)NC1=O (stereo partly drawn) [Example 315, N-((1S)-1-(4-chlorocyclohexyl)-2-((4-((S)-2-methoxy-1-((S)-2-oxo-4-(trifluoromethyl)imidazolidin-1-yl)ethyl)pyridin-2-yl)amino)-2-oxoethyl)-4-methyl-1,2,5-oxadiazole-3-carboxamide] |
| 28 nM | CC[C@H](c1ccnc(NC(=O)[C@@H](NC(=O)c2ccnn2CC)C2CCC(F)(F)CC2)c1)N1C[C@@H](C(F)(F)F)NC1=O [Example 213, N-((S)-1-(4,4-difluorocyclohexyl)-2-oxo-2-((4-((R)-1-((S)-2-oxo-4-(trifluoromethyl)imidazolidin-1-yl)propyl)pyridin-2-yl)amino)ethyl)-1-ethyl-1H-pyrazole-5-carboxamide] |
| 73 nM | COCC(NC(=O)CCC(F)(F)F)c1ccnc(NC(=O)C(NC(=O)c2ccnn2C)C2CCC(C)CC2)c1 [Example 245, N-((1S)-2-((4-(2-methoxy-1-(4,4,4-trifluorobutanamido)ethyl)pyridin-2-yl)amino)-1-((1r,4S)-4-methylcyclohexyl)-2-oxoethyl)-1-methyl-1H-pyrazole-5-carboxamide] |
| 630 nM | Cn1nccc1C(=O)NC(C(=O)Nc1cc(C(NC(=O)CCC(F)(F)F)C2CC2)ccn1)C1CCC(F)(F)CC1 (stereo not drawn) [Example 47, N-(2-((4-(cyclopropyl(4,4,4-trifluorobutanamido)methyl)pyridin-2-yl)amino)-1-(4,4-difluorocyclohexyl)-2-oxoethyl)-1-methyl-1H-pyrazole-5-carboxamide] |
| 61 nM | COCC(c1ccnc(NC(=O)[C@@H](NC(=O)C(F)(F)c2ccccc2)[C@H]2CC[C@H](C)CC2)c1)N1C[C@@H](C(F)(F)F)NC1=O (single isomer, unassigned) [Example 150] |
| 70 nM | CCn1nccc1C(=O)N[C@H](C(=O)Nc1cc([C@@H](COC)N2C[C@@H](C(F)(F)F)NC2=O)ccn1)C1CCC(F)(F)CC1 [Example 201, N-((S)-1-(4,4-difluorocyclohexyl)-2-((4-((S)-2-methoxy-1-((S)-2-oxo-4-(trifluoromethyl)imidazolidin-1-yl)ethyl)pyridin-2-yl)amino)-2-oxoethyl)-1-ethyl-1H-pyrazole-5-carboxamide] |
| 79 nM | Cc1nonc1C(=O)N[C@H](C(=O)Nc1cc(C(C)N2C[C@@H](C(F)(F)F)NC2=O)ccn1)C1CCC(F)(F)CC1 (single isomer, unassigned) [Example 169, N-((1S)-1-(4,4-Difluorocyclohexyl)-2-oxo-2-((4-(R or S)-(1-((S)-2-oxo-4-(trifluoromethyl)imidazolidin-1-yl)ethyl)pyridin-2-yl)amino)ethyl)-4-methyl-1,2,5-oxadiazole-3-carboxamide] |
| 1050 nM | CC1(C)CN(Cc2ccnc(NC(=O)[C@@H](NC(=O)OC(C)(C)C)[C@H]3CC[C@H](C)CC3)c2)C(=O)N1 [Example 24, Tert-butyl ((S)-2-((4-((4,4-dimethyl-2-oxoimidazolidin-1-yl)methyl)pyridin-2-yl)amino)-1-((1r,4S)-4-methylcyclohexyl)-2-oxoethyl)carbamate] |
| 350 nM | CCc1nonc1C(=O)NC(C(=O)Nc1cc(C(CC)NC(=O)CCC(F)(F)F)ccn1)C1CCC(F)(F)CC1 (stereo in doubt) [Example 207, N-((1S)-1-(4,4-difluorocyclohexyl)-2-oxo-2-((4-(1-(4,4,4-trifluorobutan-amido)propyl)pyridin-2-yl)amino)ethyl)-4-ethyl-1,2,5-oxadiazole-3-carboxamide] |
